# In ChEMBL document CHEMBL6153089, “Design, Synthesis, and Biological Evaluation of Thieno[3,2-d]pyrimidine Derivatives as the First Bifunctional PI3Kδ Isoform Selective/Bromodomain and Extra-Terminal Inhibitors” (J Med Chem, 2025):
# Experiments:
# SU-DHL-6 [1] = assay: Antiproliferative against activity human SU-DHL-6 cells assessed as inhibition of cell growth incubated for 72 hrs by Celltiter-luminescence analysis; type: functional, cell-based; conditions: SU-DHL-6, 72 h
# SUD4 [2] = assay: Antiproliferative against activity human SU-DHL-4 cells assessed as inhibition of cell growth incubated for 72 hrs in presence of 10:1 compound:ABBV-75 by Celltiter-luminescence analysis; type: functional, cell-based; conditions: SU-DHL-4, 72 h
# SU-DHL-6 [3] = assay: Antiproliferative against activity human SU-DHL-6 cells assessed as inhibition of cell growth incubated for 72 hrs in presence of 10:1 compound:ABBV-75 by Celltiter-luminescence analysis; type: functional, cell-based; conditions: SU-DHL-6, 72 h
# SUD4 [4] = assay: Antiproliferative against activity human SU-DHL-4 cells assessed as inhibition of cell growth incubated for 72 hrs by Celltiter-luminescence analysis; type: functional, cell-based; conditions: SU-DHL-4, 72 h
# [5] = biological target: PI3-kinase p110-delta/p85-alpha (Homo sapiens, UniProt O00329); assay: Inhibition of p110delta/p85alpha (unknown origin) incubated for 2 hrs in presence of ATP by ADP-kinaseGlo reagent based assay; type: protein-complex assay
# [6] = biological target: T1, Bromodomain-containing protein 4 (Homo sapiens, UniProt O60885); assay: Inhibition of His-tagged BRD4-BD1 (unknown origin) at 10 nM incubated for 30 mins by Alphascreen assay relative to control
# [7] = biological target: PI3-kinase p110-delta/p85-alpha (Homo sapiens) (UniProt P27986+O00329); assay: Inhibition of p110delta/p85alpha (unknown origin) at 100 nM incubated for 2 hrs in presence of ATP by ADP-kinaseGlo reagent based assay relative to control; type: protein-complex assay
# [8] = biological target: T1, Bromodomain-containing protein 4; assay: Inhibition of His-tagged BRD4-BD1 (unknown origin) incubated for 30 mins in presence of ATP by Alphascreen assay
# [9] = Toxicity in female BALB/c mouse model xenografted with human SU-DHL-6 cells assessed as effect on body weight at 20 mg/kg, po administered once daily via gavage for 15 days; type: organism-based; conditions: in vivo, 360 h, time 15 day
# SUD4 [10] = assay: Induction of apoptosis in human SU-DHL-4 cells assessed as late apoptotic cells at 1 uM incubated for 24 hrs by Annexin V-FITC/PI staining based flow cytometric analysis (reference value: 6.74 %); type: functional
# WI-38 = assay: Cytotoxicity against human WI-38 cells assessed as inhibition of cell growth at 1 uM incubated for 72 hrs by Celltiter-luminescence analysis; type: toxicity, cell-based; conditions: wi-38, 72 h
# SU-DHL-6 [11] = assay: Antitumor activity against human SU-DHL-6 cells xenografted in female BALB/c mouse model assessed as downregulation of Ki67 level in tumor at 20 mg/kg, po administered once daily via gavage for 15 days by immunohistochemical staining based analysis; type: functional, organism-based; conditions: time 15.0 day
# [12] = Toxicity in female BALB/c mouse model xenografted with human SU-DHL-6 cells assessed as effect on lung histopathology at 20 mg/kg, po administered once daily via gavage for 15 days by H and E staining based analysis; type: organism-based; conditions: in vivo, 360 h, time 15 day
# SU-DHL-6 [13] = assay: Induction of apoptosis in human SU-DHL-6 cells assessed as early apoptotic cells at 1 uM incubated for 24 hrs by Annexin V-FITC/PI staining based flow cytometric analysis (reference value: 32.1 %); type: functional
# SU-DHL-6 [14] = assay: Antitumor activity against human SU-DHL-6 cells xenografted in female BALB/c mouse model assessed as tumor growth inhibition at 20 mg/kg, po administered once daily via gavage for 15 days relative to control; type: functional; conditions: SU-DHL-6, 360 h, time 15 day, read-out: TGI
# [15] = biological target: Phosphatidylinositol 4,5-bisphosphate 3-kinase catalytic subunit beta isoform (Homo sapiens, UniProt P42338); assay: Inhibition of PI3Kbeta (unknown origin) incubated for 2 hrs in presence of ATP by ADP-kinaseGlo reagent based assay
# [16] = Toxicity in female BALB/c mouse model xenografted with human SU-DHL-6 cells assessed as effect on liver histopathology at 20 mg/kg, po administered once daily via gavage for 15 days by H and E staining based analysis; type: organism-based; conditions: in vivo, 360 h, time 15 day
# SUD4 [17] = assay: Induction of apoptosis in human SU-DHL-4 cells assessed as viable cells at 1 uM incubated for 24 hrs by Annexin V-FITC/PI staining based flow cytometric analysis (reference value: 65.2 %); type: functional; conditions: read-out: Activity
# SUD4 [18] = assay: Induction of apoptosis in human SU-DHL-4 cells assessed as early apoptotic cells at 1 uM incubated for 24 hrs by Annexin V-FITC/PI staining based flow cytometric analysis (reference value: 25.3 %); type: functional
# [19] = biological target: Phosphatidylinositol 4,5-bisphosphate 3-kinase catalytic subunit gamma isoform (Homo sapiens, UniProt P48736); assay: Inhibition of PI3Kgamma (unknown origin) incubated for 2 hrs in presence of ATP by ADP-kinaseGlo reagent based assay
# [20] = biological target: T1, Bromodomain-containing protein 4; assay: Inhibition of His-tagged BRD4-BD2 (unknown origin) incubated for 30 mins in presence of ATP by Alphascreen assay
# HUVEC = assay: Cytotoxicity against HUVEC cells assessed as inhibition of cell growth at 1 uM incubated for 72 hrs by Celltiter-luminescence analysis; type: toxicity, cell-based; conditions: human
# [21] = biological target: Bromodomain-containing protein 2 (Homo sapiens, UniProt P25440); assay: Inhibition of His-tagged BRD2-BD1 (unknown origin) incubated for 30 mins in presence of ATP by Alphascreen assay
# [22] = Toxicity in female BALB/c mouse model xenografted with human SU-DHL-6 cells assessed as effect on spleen histopathology at 20 mg/kg, po administered once daily via gavage for 15 days by H and E staining based analysis; type: organism-based; conditions: in vivo, 360 h, time 15 day
# SU-DHL-6 [23] = assay: Induction of apoptosis in human SU-DHL-6 cells assessed as necrotic cells at 1 uM incubated for 24 hrs by Annexin V-FITC/PI staining based flow cytometric analysis (reference value: 0.246 %); type: functional
# [24] = biological target: Bromodomain testis-specific protein (Homo sapiens, UniProt Q58F21); assay: Inhibition of His-tagged BRDT-BD1 (unknown origin) incubated for 30 mins in presence of ATP by Alphascreen assay
# [25] = biological target: Serine/threonine-protein kinase mTOR (Homo sapiens, UniProt P42345); assay: Inhibition of mTOR (unknown origin) incubated for 2 hrs in presence of ATP by ADP-kinaseGlo reagent based assay
# SU-DHL-6 [26] = assay: Induction of apoptosis in human SU-DHL-6 cells assessed as late apoptotic cells at 1 uM incubated for 24 hrs by Annexin V-FITC/PI staining based flow cytometric analysis (reference value: 6.43 %); type: functional
# [27] = Toxicity in female BALB/c mouse model xenografted with human SU-DHL-6 cells assessed as effect on heart histopathology at 20 mg/kg, po administered once daily via gavage for 15 days by H and E staining based analysis; type: organism-based; conditions: in vivo, 360 h, time 15 day
# SUD4 [28] = assay: Induction of apoptosis in human SU-DHL-4 cells assessed as necrotic cells at 1 uM incubated for 24 hrs by Annexin V-FITC/PI staining based flow cytometric analysis (reference value: 0.642 %); type: functional
# SU-DHL-6 [29] = assay: Induction of apoptosis in human SU-DHL-6 cells assessed as viable cells at 1 uM incubated for 24 hrs by Annexin V-FITC/PI staining based flow cytometric analysis (reference value: 61.2 %); type: functional; conditions: read-out: Activity
# [30] = Toxicity in female BALB/c mouse model xenografted with human SU-DHL-6 cells assessed as effect on kidney histopathology at 20 mg/kg, po administered once daily via gavage for 15 days by H and E staining based analysis; type: organism-based; conditions: in vivo, 360 h, time 15 day
# [31] = biological target: Bromodomain-containing protein 3 (Homo sapiens, UniProt Q15059); assay: Inhibition of His-tagged BRD3-BD1 (unknown origin) incubated for 30 mins in presence of ATP by Alphascreen assay
# SUD4 [32] = assay: Antiproliferative against activity human SU-DHL-4 cells assessed as inhibition of cell growth incubated for 72 hrs in presence of 10:1 PI-3065:compound by Celltiter-luminescence analysis; type: functional, cell-based; conditions: SU-DHL-4, 72 h
# SU-DHL-6 [33] = assay: Antiproliferative against activity human SU-DHL-6 cells assessed as inhibition of cell growth incubated for 72 hrs in presence of 10:1 PI-3065:compound by Celltiter-luminescence analysis; type: functional, cell-based; conditions: SU-DHL-6, 72 h
# PI3-kinase p110-delta/p85-alpha, sequence (P27986 whole entry): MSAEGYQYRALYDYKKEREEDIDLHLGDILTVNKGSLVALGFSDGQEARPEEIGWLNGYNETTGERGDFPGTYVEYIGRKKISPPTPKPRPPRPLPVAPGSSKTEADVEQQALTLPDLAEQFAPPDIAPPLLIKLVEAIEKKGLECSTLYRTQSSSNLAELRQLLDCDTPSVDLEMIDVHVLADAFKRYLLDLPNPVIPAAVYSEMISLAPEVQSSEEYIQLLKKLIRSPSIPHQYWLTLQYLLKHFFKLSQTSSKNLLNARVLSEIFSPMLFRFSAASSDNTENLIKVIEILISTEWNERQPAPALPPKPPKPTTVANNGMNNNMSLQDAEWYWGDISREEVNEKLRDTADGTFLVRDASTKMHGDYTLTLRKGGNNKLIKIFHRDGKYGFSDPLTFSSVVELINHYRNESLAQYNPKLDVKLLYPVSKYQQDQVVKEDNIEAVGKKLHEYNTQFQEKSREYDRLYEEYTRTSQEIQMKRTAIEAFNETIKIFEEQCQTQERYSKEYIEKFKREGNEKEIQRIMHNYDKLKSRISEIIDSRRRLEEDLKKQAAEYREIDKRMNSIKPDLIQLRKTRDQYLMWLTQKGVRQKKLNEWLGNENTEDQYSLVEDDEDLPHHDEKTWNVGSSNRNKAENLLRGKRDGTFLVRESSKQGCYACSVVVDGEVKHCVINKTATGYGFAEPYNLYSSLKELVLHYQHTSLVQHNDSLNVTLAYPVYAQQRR
# PI3-kinase p110-delta/p85-alpha, sequence (O00329 whole entry): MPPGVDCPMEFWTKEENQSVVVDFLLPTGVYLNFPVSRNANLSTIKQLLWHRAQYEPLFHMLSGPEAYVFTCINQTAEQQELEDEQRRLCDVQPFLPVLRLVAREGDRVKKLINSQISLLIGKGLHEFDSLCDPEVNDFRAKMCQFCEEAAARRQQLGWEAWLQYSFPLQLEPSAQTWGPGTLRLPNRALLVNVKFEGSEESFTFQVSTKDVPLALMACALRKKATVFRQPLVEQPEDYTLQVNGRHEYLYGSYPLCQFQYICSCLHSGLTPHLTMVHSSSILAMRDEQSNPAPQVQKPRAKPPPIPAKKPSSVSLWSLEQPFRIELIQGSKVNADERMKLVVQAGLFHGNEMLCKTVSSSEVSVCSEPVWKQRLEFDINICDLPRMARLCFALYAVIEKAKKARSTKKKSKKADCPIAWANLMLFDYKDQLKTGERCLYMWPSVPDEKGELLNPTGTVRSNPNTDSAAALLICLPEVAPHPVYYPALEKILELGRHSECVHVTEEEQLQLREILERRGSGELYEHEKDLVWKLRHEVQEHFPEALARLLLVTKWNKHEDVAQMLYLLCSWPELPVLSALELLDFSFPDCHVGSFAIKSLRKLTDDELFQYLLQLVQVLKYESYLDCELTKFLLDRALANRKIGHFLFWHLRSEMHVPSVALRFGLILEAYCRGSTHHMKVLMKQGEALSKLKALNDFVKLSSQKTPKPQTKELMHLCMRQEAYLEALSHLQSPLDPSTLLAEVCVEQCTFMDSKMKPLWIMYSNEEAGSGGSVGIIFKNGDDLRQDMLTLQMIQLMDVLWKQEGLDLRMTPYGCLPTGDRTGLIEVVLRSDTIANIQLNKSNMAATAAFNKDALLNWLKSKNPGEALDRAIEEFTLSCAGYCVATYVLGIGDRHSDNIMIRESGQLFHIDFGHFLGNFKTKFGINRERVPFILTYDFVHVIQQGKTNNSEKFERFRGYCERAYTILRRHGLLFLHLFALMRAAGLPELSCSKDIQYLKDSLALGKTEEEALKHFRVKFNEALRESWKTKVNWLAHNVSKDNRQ
# Phosphatidylinositol 4,5-bisphosphate 3-kinase catalytic subunit beta isoform, sequence (P42338 whole entry, canonical isoform): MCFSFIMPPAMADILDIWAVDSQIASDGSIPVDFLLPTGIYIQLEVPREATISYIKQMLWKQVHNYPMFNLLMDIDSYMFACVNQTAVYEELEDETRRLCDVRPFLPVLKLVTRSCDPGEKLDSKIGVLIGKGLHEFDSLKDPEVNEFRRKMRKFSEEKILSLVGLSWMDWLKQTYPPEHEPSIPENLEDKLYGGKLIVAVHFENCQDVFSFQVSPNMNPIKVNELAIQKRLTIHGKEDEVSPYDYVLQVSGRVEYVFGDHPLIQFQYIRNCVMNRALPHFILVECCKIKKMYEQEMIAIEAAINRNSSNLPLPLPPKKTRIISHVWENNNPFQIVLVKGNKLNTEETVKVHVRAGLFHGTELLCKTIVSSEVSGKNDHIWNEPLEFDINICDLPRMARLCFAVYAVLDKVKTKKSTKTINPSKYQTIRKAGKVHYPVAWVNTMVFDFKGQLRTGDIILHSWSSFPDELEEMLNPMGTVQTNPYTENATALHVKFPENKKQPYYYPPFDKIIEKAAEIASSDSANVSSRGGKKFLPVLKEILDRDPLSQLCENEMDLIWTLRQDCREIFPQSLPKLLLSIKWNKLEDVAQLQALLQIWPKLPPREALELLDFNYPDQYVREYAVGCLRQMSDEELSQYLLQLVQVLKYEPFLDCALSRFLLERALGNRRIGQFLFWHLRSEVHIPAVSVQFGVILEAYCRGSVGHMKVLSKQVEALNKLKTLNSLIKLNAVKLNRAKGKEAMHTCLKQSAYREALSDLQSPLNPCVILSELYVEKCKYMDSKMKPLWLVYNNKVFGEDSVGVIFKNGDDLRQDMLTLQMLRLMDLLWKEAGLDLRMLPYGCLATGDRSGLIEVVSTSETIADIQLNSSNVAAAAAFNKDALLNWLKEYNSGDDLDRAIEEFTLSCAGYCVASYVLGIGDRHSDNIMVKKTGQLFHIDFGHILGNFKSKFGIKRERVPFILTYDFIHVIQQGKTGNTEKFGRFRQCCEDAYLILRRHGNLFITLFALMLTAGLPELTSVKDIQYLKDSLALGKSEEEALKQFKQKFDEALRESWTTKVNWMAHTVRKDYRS
# Bromodomain-containing protein 3, sequence (Q15059 whole entry): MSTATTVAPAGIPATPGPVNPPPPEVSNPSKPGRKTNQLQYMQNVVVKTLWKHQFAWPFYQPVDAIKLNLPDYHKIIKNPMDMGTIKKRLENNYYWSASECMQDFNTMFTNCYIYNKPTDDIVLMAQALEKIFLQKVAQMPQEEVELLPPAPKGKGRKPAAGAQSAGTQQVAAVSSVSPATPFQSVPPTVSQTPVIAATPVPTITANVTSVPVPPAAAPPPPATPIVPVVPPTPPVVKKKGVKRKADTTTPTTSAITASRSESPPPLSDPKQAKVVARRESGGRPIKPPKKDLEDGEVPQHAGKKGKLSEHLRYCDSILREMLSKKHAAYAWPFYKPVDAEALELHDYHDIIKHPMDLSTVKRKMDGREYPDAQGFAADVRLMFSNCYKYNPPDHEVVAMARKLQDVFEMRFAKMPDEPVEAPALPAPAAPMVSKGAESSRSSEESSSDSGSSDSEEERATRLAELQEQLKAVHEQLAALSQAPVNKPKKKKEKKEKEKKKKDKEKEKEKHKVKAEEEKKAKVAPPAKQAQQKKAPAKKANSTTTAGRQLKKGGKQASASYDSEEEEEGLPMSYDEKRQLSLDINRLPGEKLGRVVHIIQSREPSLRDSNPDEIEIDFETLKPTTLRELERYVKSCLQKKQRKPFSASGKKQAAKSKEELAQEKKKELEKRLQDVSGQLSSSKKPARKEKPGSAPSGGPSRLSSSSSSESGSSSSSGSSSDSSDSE
# Phosphatidylinositol 4,5-bisphosphate 3-kinase catalytic subunit gamma isoform, sequence (P48736 whole entry, canonical isoform): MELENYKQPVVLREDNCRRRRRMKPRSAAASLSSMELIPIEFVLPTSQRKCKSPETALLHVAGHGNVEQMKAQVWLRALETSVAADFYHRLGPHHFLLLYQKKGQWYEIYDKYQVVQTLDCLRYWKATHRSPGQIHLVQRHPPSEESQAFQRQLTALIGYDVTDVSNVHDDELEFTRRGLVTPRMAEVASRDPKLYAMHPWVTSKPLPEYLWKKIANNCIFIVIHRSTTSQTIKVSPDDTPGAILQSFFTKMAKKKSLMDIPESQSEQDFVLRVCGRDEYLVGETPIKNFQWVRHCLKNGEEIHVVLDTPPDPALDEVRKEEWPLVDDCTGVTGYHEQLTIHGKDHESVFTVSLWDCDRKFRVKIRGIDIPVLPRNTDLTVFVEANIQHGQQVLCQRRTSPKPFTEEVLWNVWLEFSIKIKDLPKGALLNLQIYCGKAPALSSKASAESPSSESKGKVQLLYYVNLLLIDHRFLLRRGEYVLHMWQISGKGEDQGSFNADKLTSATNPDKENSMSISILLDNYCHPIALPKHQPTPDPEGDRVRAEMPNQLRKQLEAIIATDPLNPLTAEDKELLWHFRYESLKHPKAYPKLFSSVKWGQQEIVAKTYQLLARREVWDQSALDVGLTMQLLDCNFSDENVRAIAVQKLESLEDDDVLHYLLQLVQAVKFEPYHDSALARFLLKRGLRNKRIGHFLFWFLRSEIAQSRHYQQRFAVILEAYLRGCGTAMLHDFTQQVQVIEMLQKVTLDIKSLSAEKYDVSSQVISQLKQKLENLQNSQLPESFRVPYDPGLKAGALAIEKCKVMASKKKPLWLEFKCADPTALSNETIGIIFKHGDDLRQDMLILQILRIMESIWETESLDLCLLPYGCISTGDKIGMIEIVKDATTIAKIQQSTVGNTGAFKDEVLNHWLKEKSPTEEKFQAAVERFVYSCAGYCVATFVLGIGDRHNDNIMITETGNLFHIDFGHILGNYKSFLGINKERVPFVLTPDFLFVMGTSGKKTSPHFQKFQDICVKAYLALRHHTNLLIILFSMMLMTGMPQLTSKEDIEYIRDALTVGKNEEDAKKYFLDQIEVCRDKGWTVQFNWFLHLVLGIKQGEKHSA
smiles,measurement,setting,value
Fc1ccc2[nH]ccc2c1-c1nc(N2CCOCC2)c2sc(CN3CCN(CC4CC4)CC3)cc2n1,IC50,SU-DHL-6 [1],1820 nM
same,IC50,SUD4 [2],14 nM
same,IC50,SU-DHL-6 [3],10 nM
same,IC50,SUD4 [4],263 nM
same,IC50,[5],23 nM
CC(=O)Nc1cc(-c2nc(N3CCOCC3)c3sc(CN4CCN(CC5CC5)CC4)cc3n2)cn(C)c1=O,inhibition,[6],3%
same,inhibition,[7],21.5%
Cn1cc(-c2nc(N3CCOCC3)c3sc(CN4CCN(CC5CC5)CC4)cc3n2)c2cc[nH]c2c1=O,IC50,SU-DHL-6 [1],53 nM
same,inhibition,[6],58.2%
same,inhibition,[7],19.5%
same,IC50,SUD4 [4],220 nM
same,IC50,[5],464 nM
same,IC50,[8],7.8 nM
Cn1cc(-c2nc(N3CCOCC3)c3sc(CN4CCN(CC5CC5)CC4)cc3n2)cc(N)c1=O,inhibition,[6],18.1%
same,inhibition,[7],7.7%
C[C@@H](O)C(=O)N1CCN(Cc2cc3nc(-c4cn(C)c(=O)c5[nH]ccc45)nc(N4CCOCC4)c3s2)CC1,inhibition,[6],38.2%
same,inhibition,[7],27.4%
Cn1cc(-c2nc(N3CCOCC3)c3sc(CN4CCN(CC5CC5)CC4)cc3n2)ccc1=O,inhibition,[6],32.6%
same,inhibition,[7],25.7%
O=c1cc(N2CCOCC2)oc2c(-c3ccc4c(c3)OCCO4)csc12,IC50,SU-DHL-6 [1],518 nM
same,Activity,[9],Non-toxic
same,Activity,SUD4 [10],10.4%
same,Activity,WI-38,Toxic
same,Activity,SU-DHL-6 [11],Active; More Effective Than Sf2523
same,Activity,[12],Non-toxic
same,Activity,SU-DHL-6 [13],33.6%
same,inhibition in vivo at 20 mg/kg,SU-DHL-6 [14],62.3%
same,IC50,[15],129 nM
same,Activity,[16],Non-toxic
same,viability at 1 µM,SUD4 [17],61.7%
same,Activity,SUD4 [18],26.8%
same,IC50,[19],251 nM
same,IC50,[20],235 nM
same,Activity,HUVEC,Toxic
same,IC50,[21],383 nM
same,Activity,[22],Non-toxic
same,Activity,SU-DHL-6 [23],0.61%
same,IC50,[24],1230 nM
same,IC50,[25],599 nM
same,Activity,SU-DHL-6 [26],5.53%
same,Activity,[27],Non-toxic
same,IC50,SUD4 [4],1880 nM
same,IC50,[5],158 nM
same,Activity,SUD4 [28],1.05%
same,IC50,[8],312 nM
same,viability at 1 µM,SU-DHL-6 [29],60.2%
same,Activity,[30],Non-toxic
same,IC50,[31],303 nM
Cn1cc(-c2nc(N3CCOCC3)c3sc(CN4CCN(CC5CC5)CC4)cc3n2)c2cn[nH]c2c1=O,inhibition,[6],12.7%
same,inhibition,[7],43.5%
CCS(=O)(=O)Nc1ccc(Oc2ccc(F)cc2F)c(-c2cn(C)c(=O)c3[nH]ccc23)c1 [MIVEBRESIB],IC50,SU-DHL-6 [1],23 nM
same,IC50,SUD4 [32],14 nM
same,IC50,SU-DHL-6 [33],10 nM
same,IC50,SUD4 [4],41 nM
same,IC50,[8],0.73 nM
Cn1cc(-c2nc(N3CCOCC3)c3sc(CN4CCN(C(=O)CN)CC4)cc3n2)c2cc[nH]c2c1=O,inhibition,[6],28.2%
same,inhibition,[7],16%
Cc1c(-c2nc(N3CCOCC3)c3sc(CN4CCN(CC5CC5)CC4)cc3n2)cn(C)c(=O)c1N,inhibition,[6],1.4%
same,inhibition,[7],6%
